≈ marks a conversion by molar mass, not a printed value.
Tested on: HepG2
Assay: Cytotoxicity against human HepG2 cells by MTT assay
Format: functional, cell-based

SMILES	IC50 [µg/mL]
COc1ccc([C@@H]2C[C@@H]3O[C@H]4[C@H](Oc5c(C)c(O)c(C)c(c53)O2)O[C@H](COC(C)=O)[C@@H](O)[C@@H]4O)cc1	3.5 (≈ 6.96 µM)
COc1ccc([C@@H]2C[C@@H]3O[C@H]4[C@H](Oc5c(C)c(O)c(C)c(c53)O2)O[C@H](CO)[C@@H](O)[C@@H]4OC(C)=O)cc1	4.1 (≈ 8.16 µM)
COc1ccc([C@@H]2C[C@@H](O)c3c(c(C)c4c(c3O[C@@H]3O[C@H](CO)[C@@H](O)[C@H](O)[C@H]3O)CO[C@H]3[C@H](O4)O[C@H](CO)[C@@H](O)[C@@H]3O)O2)cc1	3.1 (≈ 4.85 µM)
COc1ccc([C@@H]2C[C@@H](O)c3c(c(C)c(O[C@@H]4O[C@H](CO)[C@@H](O)[C@H](O)[C@H]4O)c(CO)c3O[C@@H]3O[C@H](CO)[C@@H](O)[C@H](O)[C@H]3O)O2)cc1 [TRIPHYLLIN A]	5.7 (≈ 8.68 µM)
O=c1[nH]cc(F)c(=O)[nH]1 [FLUOROURACIL]	1.3 (≈ 9.99 µM)
COc1ccc([C@@H]2C[C@@H]3O[C@H]4[C@H](Oc5c(C)c(O)c(C)c(c53)O2)O[C@H](CO)[C@@H](O)[C@@H]4O)cc1 [ABACOPTERIN C]	4 (≈ 8.69 µM)
